Test results as given in US20130210061A1, “Method of Screening Damp-Dry Malodor Inhibitor and Method of Evaluating Damp-Dry Malodor Inhibitor” (KAO CORPORATION, priority 2010, published 2013).

What was measured:
Assay in all cases: Example 1: quantification of 4M3H on cotton fabric with 14-methylhexadecanoic acid
R. muculaginosa NBRC0909 = assay type: cell-based, Rhodotorula mucilaginosa; conditions: 37° C., 24 hours, vs sterilized water
Description: (§1) 10 mL of methanol was added to the towel that had been left to stand still for 24 hours, and 1 mL of the methanol was mixed with 1 mL of ADAM (9-anthrydiazomethanene, manufactured by Funakoshi Corp., 0.1 w/v %). The mixture was left to stand for 60 minutes at room temperature, and thus derivatization was carried out.
(§2) Thereafter, 10 μL of the solution was analyzed by using LC-FL (liquid chromatography apparatus: HITACHI ELITE LaChrom (trade name, manufactured by Hitachi, Ltd.), column: Lichrosphere 100 RP-8(e) (trade name, manufactured by Agilent Technologies, Inc., 5 μm×125 mm×4 mmφ), column temperature: 40° C., eluent a mixed solution of acetonitrile/water=7/3 (volume ratio), flow rate: 1.0 mL/min, detector: excitation wavelength (365 nm), measurement wavelength (412 nm)), and thereby quantification of 4M3H thus produced was carried out. In regard to the amount of production of 4M3H, a sample which produced 4M3H in an amount of more than 1 μg was rated as “[…]”; a sample which produced 4M3H in an amount of more than 0.1 μg and 1 μg or less was rated as “∘”; a sample which produced 4M3H in an amount of more than 0 μg and 0.1 μg or less was rated as “Δ”; and a sample in which no 4M3H was detected was rated as “x”.
(§3) One platinum loop of each of Moraxella osloensis NCIMB10693, Moraxella sp. 4-1, Psychrobacter pacificensis NBRC103191, Psychrobacter glacincola NCIMB101053, Pseudomonas alcaligenes No. 41, Acinetobacter calcoaceticus HH2BD-49, Saccaromyces cerevisiae NBRC1661, Rhodotorula mucilaginosa NBRC0909 and Rhodotorula slooffiae 13c was inoculated into 5 mL of a SCD liquid medium (manufactured by Nihon Pharmaceutical Co., Ltd.), and the microbial cells were subjected to shaking culture (160 rpm) at 35° C. for 24 hours. The microbial cells obtained after culture were centrifuged (8000×g, 10 minutes), the supernatant was removed, and then the microbial cells were suspended in 5 mL of physiological saline. The suspension was centrifuged again (8000×g, 10 minutes), subsequently the supernatant was removed, and a microbial suspension was prepared by using physiological saline such that the OD600 would be 0.1.
(§4) Furthermore, 0.1 mL each of 10-ppm or 100-ppm aqueous solutions of the compounds shown in the following Table 6 was applied on the fabric described above. As a control, a fabric on which sterilized water was applied instead of the compounds described below was also prepared.
(§5) On a plain-woven cotton fabric prepared as described above, 0.1 mL each of the various microbial suspensions was inoculated, and the samples were left to stand still under humidified conditions at 37° C. for 24 hours and were subjected to an evaluation such as described below.
(§6) Quantification of 4M3H was carried out by the same method as that used in Test Example 3, and by taking as a reference the 4M3H production amount of a sample on which sterilized water was applied as a test substance, the 4M3H production amounts in the case of applying other test substances were evaluated on the basis of the following criteria. • A: (4M3H production amount in the case of applying a test substance)<( 1/100 of the 4M3H production amount in the case of applying sterilized water) • B: ( 1/100 of the 4M3H production amount in the case of applying sterilized water)≦(4M3H production amount in the case of applying a test substance)<( 1/10 of the 4M3H production amount in the case of applying sterilized water) • C: ( 1/10 of the 4M3H production amount in the case of applying sterilized water)≦(4M3H production amount in the case of applying a test substance)<(4M3H production amount in the case of applying sterilized water) • D: (4M3H production amount in the case of applying sterilized water)≦(4M3H production amount in the case of applying a test substance)

M. osloensis NCIMB10693 = assay type: cell-based, Moraxella osloensis; conditions: M. osloensis NCIMB10693, cotton fabric with 14-methylhexadecanoic acid, 37° C., 24 hours, vs sterilized water
Description: as §1, §2, §3, §4, §5, §6

P. alcaligenes No. 41 = assay type: cell-based, Pseudomonas alcaligenes; conditions: 37° C., 24 hours, vs sterilized water
Description: as §1, §2, §3, §4, §5, §6

R. slooffiae 13c = assay type: cell-based, Rhodotorula slooffiae; conditions: 37° C., 24 hours, vs sterilized water
Description: as §1, §2, §3, §4, §5, §6

[1] = system: A. calcoaceticus HH2BD-49; assay type: cell-based, Acinetobacter calcoaceticus; conditions: 37° C., 24 hours, vs sterilized water
Description: as §1, §2, §3, §4, §5, §6

Moraxella sp. 4-1 = assay type: cell-based; conditions: 37° C., 24 hours, vs sterilized water
Description: as §1, §2, §3, §4, §5, §6

S. cerevisiae NBRC1661 = assay type: cell-based, Saccaromyces cerevisiae; conditions: 37° C., 24 hours, vs sterilized water
Description: as §1, §2, §3, §4, §5, §6

P. glacincola NBRC101053 = assay type: cell-based, Psychrobacter glacincola; conditions: 37° C., 24 hours, vs sterilized water
Description: as §1, §2, §3, §4, §5, §6

[2] = system: P. pacificensis NBRC103191; assay type: cell-based, Psychrobacter pacificensis; conditions: 37° C., 24 hours, vs sterilized water
Description: as §1, §2, §3, §4, §5, §6

[3] = Faucicola osloensis, 100 ppm test substance, read-out: Production amount of 4M3H

Row | Molecule | Production amount of 4M3H (R. muculaginosa NBRC0909; 100 ppm test substance) | activity at 100 ppm (M. osloensis NCIMB10693; [3]) | Production amount of 4M3H (P. alcaligenes No. 41; 100 ppm test substance) | Production amount of 4M3H (R. slooffiae 13c; 100 ppm test substance) | Production amount of 4M3H ([1]; 100 ppm test substance) | Production amount of 4M3H (Moraxella sp. 4-1; 100 ppm test substance) | Production amount of 4M3H (S. cerevisiae NBRC1661; 100 ppm test substance) | Production amount of 4M3H (P. glacincola NBRC101053; 100 ppm test substance) | Production amount of 4M3H ([2]; 100 ppm test substance) | Production amount of 4M3H (R. muculaginosa NBRC0909; 10 ppm test substance) | activity at 10 ppm (M. osloensis NCIMB10693; Faucicola osloensis, 10 ppm test substance, read-out: Production amount of 4M3H) | Production amount of 4M3H (P. alcaligenes No. 41; 10 ppm test substance) | Production amount of 4M3H (R. slooffiae 13c; 10 ppm test substance) | Production amount of 4M3H ([1]; 10 ppm test substance) | Production amount of 4M3H (Moraxella sp. 4-1; 10 ppm test substance) | Production amount of 4M3H (S. cerevisiae NBRC1661; 10 ppm test substance) | Production amount of 4M3H (P. glacincola NBRC101053; 10 ppm test substance) | Production amount of 4M3H ([2]; 10 ppm test substance) | Production amount of 4M3H (M. osloensis NCIMB10693; 100 ppm test substance)
1 | CCCCCCCC/C=C\CCCCCCCC(=O)O [Oleic acid] | B (( 1/100 of the 4M3H production amount in the case of applying sterilized water)≦(4M3H production amount in the case of applying a test substance)<( 1/10 of the 4M3H production amount in the case of applying sterilized water)) | 1 to 10% | C (( 1/10 of the 4M3H production amount in the case of applying sterilized water)≦(4M3H production amount in the case of applying a test substance)<(4M3H production amount in the case of applying sterilized water)) | C (( 1/10 of the 4M3H production amount in the case of applying sterilized water)≦(4M3H production amount in the case of applying a test substance)<(4M3H production amount in the case of applying sterilized water)) | C (( 1/10 of the 4M3H production amount in the case of applying sterilized water)≦(4M3H production amount in the case of applying a test substance)<(4M3H production amount in the case of applying sterilized water)) | B (( 1/100 of the 4M3H production amount in the case of applying sterilized water)≦(4M3H production amount in the case of applying a test substance)<( 1/10 of the 4M3H production amount in the case of applying sterilized water)) | B (( 1/100 of the 4M3H production amount in the case of applying sterilized water)≦(4M3H production amount in the case of applying a test substance)<( 1/10 of the 4M3H production amount in the case of applying sterilized water)) | A ((4M3H production amount in the case of applying a test substance)<( 1/100 of the 4M3H production amount in the case of applying sterilized water)) | C (( 1/10 of the 4M3H production amount in the case of applying sterilized water)≦(4M3H production amount in the case of applying a test substance)<(4M3H production amount in the case of applying sterilized water)) |  |  |  |  |  |  |  |  |  | 
2 | Cc1ccc(C(C)C)c(O)c1 [Thymol] | A ((4M3H production amount in the case of applying a test substance)<( 1/100 of the 4M3H production amount in the case of applying sterilized water)) | < 1% | C (( 1/10 of the 4M3H production amount in the case of applying sterilized water)≦(4M3H production amount in the case of applying a test substance)<(4M3H production amount in the case of applying sterilized water)) | C (( 1/10 of the 4M3H production amount in the case of applying sterilized water)≦(4M3H production amount in the case of applying a test substance)<(4M3H production amount in the case of applying sterilized water)) | C (( 1/10 of the 4M3H production amount in the case of applying sterilized water)≦(4M3H production amount in the case of applying a test substance)<(4M3H production amount in the case of applying sterilized water)) | B (( 1/100 of the 4M3H production amount in the case of applying sterilized water)≦(4M3H production amount in the case of applying a test substance)<( 1/10 of the 4M3H production amount in the case of applying sterilized water)) | D ((4M3H production amount in the case of applying sterilized water)≦(4M3H production amount in the case of applying a test substance)) | B (( 1/100 of the 4M3H production amount in the case of applying sterilized water)≦(4M3H production amount in the case of applying a test substance)<( 1/10 of the 4M3H production amount in the case of applying sterilized water)) | B (( 1/100 of the 4M3H production amount in the case of applying sterilized water)≦(4M3H production amount in the case of applying a test substance)<( 1/10 of the 4M3H production amount in the case of applying sterilized water)) | D ((4M3H production amount in the case of applying sterilized water)≦(4M3H production amount in the case of applying a test substance)) | 1 to 10% | D ((4M3H production amount in the case of applying sterilized water)≦(4M3H production amount in the case of applying a test substance)) | D ((4M3H production amount in the case of applying sterilized water)≦(4M3H production amount in the case of applying a test substance)) | D ((4M3H production amount in the case of applying sterilized water)≦(4M3H production amount in the case of applying a test substance)) | C (( 1/10 of the 4M3H production amount in the case of applying sterilized water)≦(4M3H production amount in the case of applying a test substance)<(4M3H production amount in the case of applying sterilized water)) | C (( 1/10 of the 4M3H production amount in the case of applying sterilized water)≦(4M3H production amount in the case of applying a test substance)<(4M3H production amount in the case of applying sterilized water)) | C (( 1/10 of the 4M3H production amount in the case of applying sterilized water)≦(4M3H production amount in the case of applying a test substance)<(4M3H production amount in the case of applying sterilized water)) | D ((4M3H production amount in the case of applying sterilized water)≦(4M3H production amount in the case of applying a test substance)) | 
3 | Alkyl benzyl dimethyl ammonium chloride | D ((4M3H production amount in the case of applying sterilized water)≦(4M3H production amount in the case of applying a test substance)) |  | D ((4M3H production amount in the case of applying sterilized water)≦(4M3H production amount in the case of applying a test substance)) | D ((4M3H production amount in the case of applying sterilized water)≦(4M3H production amount in the case of applying a test substance)) | D ((4M3H production amount in the case of applying sterilized water)≦(4M3H production amount in the case of applying a test substance)) | D ((4M3H production amount in the case of applying sterilized water)≦(4M3H production amount in the case of applying a test substance)) | C (( 1/10 of the 4M3H production amount in the case of applying sterilized water)≦(4M3H production amount in the case of applying a test substance)<(4M3H production amount in the case of applying sterilized water)) | C (( 1/10 of the 4M3H production amount in the case of applying sterilized water)≦(4M3H production amount in the case of applying a test substance)<(4M3H production amount in the case of applying sterilized water)) | D ((4M3H production amount in the case of applying sterilized water)≦(4M3H production amount in the case of applying a test substance)) |  |  |  |  |  |  |  |  |  | D ((4M3H production amount in the case of applying sterilized water)≦(4M3H production amount in the case of applying a test substance))
